Measured values as given in the NIST ThermoML archive (doi:10.1016/j.jct.2012.03.017).
Values joined by “and” are separate entries in the source; they are usually repeats but may differ in a detail not shown here. Equal entries are not always repeated.

Experiments:
[1] = Crystal, Calculated from knudsen effusion weight loss
[2] = molar enthalpy of vaporization or sublimation; conditions: 298.15 K; Crystal; drop calorimetry

NC(=O)C1c2ccccc2Oc2ccccc21 [9H-xanthene-9-carboxamide]
[1]
Conditions	vapor or sublimation pressure
399.14 K	0.0001229 kPa and 0.0001189 kPa and 0.000116 kPa
401.14 K	0.000154 kPa and 0.0001484 kPa and 0.000144 kPa
403.16 K	0.0001893 kPa and 0.0001856 kPa and 0.0001767 kPa
405.15 K	0.0002159 kPa and 0.0002174 kPa
407.19 K	0.0002731 kPa and 0.0002662 kPa
409.17 K	0.0003106 kPa and 0.0002981 kPa and 0.0003072 kPa
411.15 K	0.0003968 kPa and 0.0003833 kPa
413.19 K	0.0004758 kPa and 0.0004828 kPa and 0.0004614 kPa
415.15 K	0.0005574 kPa and 0.0005463 kPa
417.17 K	0.000649 kPa and 0.0006492 kPa
419.18 K	0.0007769 kPa and 0.0008205 kPa
421.2 K	0.0009516 kPa and 0.0009609 kPa

Conditions	molar enthalpy [kcal/mol]
[2]	31.1

OC1c2ccccc2Oc2ccccc21 [9H-xanthen-9-ol]
[1]
Conditions	vapor or sublimation pressure
333.18 K	6.91e-05 kPa and 5.67e-05 kPa and 6.28e-05 kPa
335.14 K	8.54e-05 kPa and 8.17e-05 kPa and 7.79e-05 kPa
337.08 K	0.0001045 kPa and 0.0001126 kPa and 0.0001038 kPa
339.18 K	0.0001355 kPa and 0.0001321 kPa and 0.000152 kPa
341.13 K	0.0001838 kPa and 0.0001813 kPa and 0.0001645 kPa
343.08 K	0.0002256 kPa and 0.0002318 kPa and 0.0002156 kPa
345.08 K	0.0002616 kPa and 0.0002749 kPa and 0.0002595 kPa
347.14 K	0.0003355 kPa and 0.0003321 kPa and 0.0003104 kPa
349.17 K	0.0004364 kPa and 0.0003742 kPa and 0.0003877 kPa
351.07 K	0.0005411 kPa and 0.0005557 kPa and 0.0005348 kPa
353.12 K	0.0006853 kPa and 0.0006411 kPa and 0.0006134 kPa
355.18 K	0.0008786 kPa and 0.0007534 kPa and 0.0007633 kPa

O=C(O)C1c2ccccc2Oc2ccccc21 [9H-xanthene-9-carboxylic acid]
[1]
Conditions	vapor or sublimation pressure
383.08 K	0.000119 kPa and 0.0001121 kPa and 0.0001132 kPa
385.15 K	0.0001477 kPa and 0.0001432 kPa and 0.0001353 kPa
387.25 K	0.0001726 kPa and 0.0001686 kPa and 0.0001619 kPa
389.12 K	0.0002124 kPa and 0.0002049 kPa and 0.0002165 kPa
391.13 K	0.0002584 kPa and 0.0002449 kPa
393.14 K	0.0003154 kPa and 0.0003062 kPa
395.13 K	0.0003811 kPa and 0.0003776 kPa and 0.0003653 kPa
397.11 K	0.0004814 kPa and 0.0004632 kPa
399.14 K	0.0005597 kPa and 0.0005447 kPa and 0.0005518 kPa
401.13 K	0.0006834 kPa and 0.0006937 kPa and 0.0006737 kPa
403.12 K	0.0008362 kPa and 0.0008293 kPa and 0.0007816 kPa
405.15 K	0.0009639 kPa and 0.0009409 kPa

Conditions	molar enthalpy [kcal/mol]
[2]	30
